Like-named read-outs stand apart in the source and are kept apart here.
Experiments:
human melanoma cell A375 = test: Cell proliferation (MTT) assay, A375; assay type: cell-based
Protocol: (§1) The antiproliferative activities evaluation was conducted by using a modified procedure as described in the literature. Briefly, target tumour cells were grown to log phase in RPMI 1640 medium supplemented with 10% fetal bovine serum. After diluting to 3 × 10^4 cells mL^−1 with the complete medium, 100 µL of the obtained cell suspension was added to each well of 96-well culture plates. The subsequent incubation was performed at 37 °C, 5% CO2 atmosphere for 24 h before subjecting to antiproliferation assessment. The tested samples at pre-set concentrations were added to six wells with Doxorubicin (AMD) co-assayed as a positive reference. After 48 h of exposure period, 25 µL of PBS containing 2.5 mg·mL^−1 of MTT was added to each well. After 4 h, the medium was replaced by 150 µL DMSO to dissolve the purple formazan crystals produced. The absorbance at 570 nm of each well was measured using an ELISA plate reader. The data represented the mean of three experiments in triplicate and were expressed as means ± SD using Student’s test.

[1] = tested on: human breast cancer cell MDA-MB-231; test: Cell proliferation (MTT) assay, MDA-MB-231; assay type: cell-based
Protocol: as §1

[2] = tested on: human hepatoma cell SMMC-7721; test: Cell proliferation (MTT) assay, SMMC-7721; assay type: cell-based; conditions: read-out: IC50 SMMC-7721
Protocol: as §1

telomerase = biological target: T1, telomerase (Homo sapiens, UniProt O14746); test: Telomerase activity TRAP-PCR-ELISA assay (A375 cell extract); assay type: biochemical; conditions: TRAP-PCR-ELISA, A375 cells, 24 h treatment
T1 construct: endogenous in cells; host or cells: A375 human melanoma cells
Protocol: Thirty-six compounds were tested in a search for inhibitors of telomerase activity using the TRAP-PCR-ELISA assay. In detail, the A375 cells were firstly maintained in RPMI 1640 buffer (Hyclone, Miami, FL), supplemented with 10% fetal bovineserum (GIBCO, New York, NY), streptomycin (0.1 mg/mL) and penicillin (100 IU/mL) at 37 °C in a humidified atmosphere containing 5% CO2. After trypsinisation, 5 × 10^4 cultured cells in logarithmic growth were seeded into T25 flasks (Corning, New York, NY) and cultured to allow to adherence. […] After 24 h treatment, the cells were harvested by cell scraper orderly followed by washing once with PBS. The cells were lysed in 150 µL RIPA cell lysis buffer (Santa Cruz, Santa Cruz, CA), and incubated on ice for 30 min. The cellular supernatants were obtained via centrifugation at 12,000g for 20 min at 4 °C and stored at –80 °C. The TRAP-PCR-ELISA assay was performed using a telomerase detection kit (Roche, Basel, Switzerland) according to the manufacturer’s protocol. In brief, 2 µL of cell extracts were mixed with 48 µL TRAP reaction mixtures. TRAP primers and Taq polymerase are incubated at 25 °C for 30 min. PCR was then initiated at 94 °C, 120 s for predenaturation and performed using 35 cycles each consisting of 94 °C for 30 s, 50 °C for 30 s, 72 °C for 90 s. Then 20 µL of PCR products were hybridised to a digoxigenin (DIG)-labelled telomeric repeat specific detection probe. And the PCR products were immobilised via the biotin-labelled primer to a streptavidin-coated microtiter plate subsequently. The immobilised DNA fragments were detected with a peroxidase-conjugated anti-DIG antibody and visualised following the addition of the stop regent. The microtitre plate was assessed on TECAN Infinite M200 microplate reader (Mannedorf, Switzerland) at a wavelength of 490 nm, and the final value were presented as mean ± SD[23].

[3] = antiproliferative, MTT, 48 h exposure, read-out: IC50 A375
[4] = antiproliferative, MTT, 48 h exposure, read-out: IC50 MDA-MB-231
[5] = antiproliferative, MTT, 48 h exposure
[6] = IC50 inhibitory activity against telomerase
[7] = Homo sapiens, A-375, 48 h, read-out: IC50 A375, antiproliferative, MTT, 48 h exposure
[8] = Homo sapiens, MDA-MB-231, 48 h, read-out: IC50 MDA-MB-231, antiproliferative, MTT, 48 h exposure

T1 sequence (O14746 whole entry): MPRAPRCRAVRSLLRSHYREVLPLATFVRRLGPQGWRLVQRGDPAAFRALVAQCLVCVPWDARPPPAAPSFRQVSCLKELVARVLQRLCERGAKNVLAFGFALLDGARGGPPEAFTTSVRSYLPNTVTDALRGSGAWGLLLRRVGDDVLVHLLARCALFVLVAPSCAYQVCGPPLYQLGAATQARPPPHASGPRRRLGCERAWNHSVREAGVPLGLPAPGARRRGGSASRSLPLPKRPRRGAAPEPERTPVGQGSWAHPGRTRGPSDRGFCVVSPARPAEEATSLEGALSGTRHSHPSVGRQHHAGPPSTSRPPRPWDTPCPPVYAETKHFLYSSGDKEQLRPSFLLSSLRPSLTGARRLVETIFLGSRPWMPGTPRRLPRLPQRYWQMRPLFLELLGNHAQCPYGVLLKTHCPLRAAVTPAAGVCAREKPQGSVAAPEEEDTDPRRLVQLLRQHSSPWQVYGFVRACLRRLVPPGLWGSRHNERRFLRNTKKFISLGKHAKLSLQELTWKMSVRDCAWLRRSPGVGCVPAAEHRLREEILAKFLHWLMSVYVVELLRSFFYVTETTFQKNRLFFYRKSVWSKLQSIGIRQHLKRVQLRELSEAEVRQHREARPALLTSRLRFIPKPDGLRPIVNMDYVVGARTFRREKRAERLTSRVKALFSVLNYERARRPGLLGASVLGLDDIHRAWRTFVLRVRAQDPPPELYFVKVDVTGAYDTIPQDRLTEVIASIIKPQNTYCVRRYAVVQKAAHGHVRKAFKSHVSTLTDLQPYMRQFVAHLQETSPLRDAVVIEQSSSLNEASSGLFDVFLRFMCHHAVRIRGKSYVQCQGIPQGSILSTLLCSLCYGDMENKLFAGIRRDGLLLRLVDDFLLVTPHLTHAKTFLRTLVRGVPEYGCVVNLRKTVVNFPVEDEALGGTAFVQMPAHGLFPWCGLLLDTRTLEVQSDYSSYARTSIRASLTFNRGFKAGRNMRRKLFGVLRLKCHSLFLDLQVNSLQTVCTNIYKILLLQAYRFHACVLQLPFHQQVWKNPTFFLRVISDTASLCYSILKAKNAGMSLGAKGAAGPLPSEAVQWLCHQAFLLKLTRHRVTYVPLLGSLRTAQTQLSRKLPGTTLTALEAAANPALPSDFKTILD

In the case of `O=S(=O)(F)/C=C/c1cccc(Br)c1` [Compound 19], the IC50 (human melanoma cell A375; [3]) is reported as 20.1 ± 0.9 µM and the IC50 [1, 4] is reported as 12.1 ± 1.52 µM.
For `O=S(=O)(F)/C=C/C=C/c1ccc(Br)cc1` [Compound 51], the IC50 (human melanoma cell A375; [3]) was 42 ± 1.6 µM, the IC50 [1, 4] was 20.9 ± 1.09 µM and the IC50 [2, 5] was 31.2 ± 1.33 µM.
Work on `N#Cc1ccc(/C=C/S(=O)(=O)F)cc1` [Compound 13] yielded an IC50 (telomerase; [6]) of 39 ± 1.29 µM.
Compound `CSc1ccc(/C=C/S(=O)(=O)F)cc1` [Compound 64] has an IC50 (human melanoma cell A375; [3]) of 23.9 ± 1.37 µM and an IC50 [1, 4] of 38.3 ± 0.9 µM.
`O=S(=O)(F)/C=C/c1ccsc1` [Compound 41] was tested, and the IC50 (human melanoma cell A375; [3]) was 14.6 ± 1.2 µM, the IC50 [1, 4] was 10.6 ± 0.46 µM and the IC50 [2, 5] was 28.8 ± 0.75 µM.
`O=C(O)c1ccc(/C=C/S(=O)(=O)F)cc1` [Compound 62] was tested, and the IC50 (human melanoma cell A375; [7]) was 45.1 ± 1.4 µM, the IC50 [1, 8] was 86.2 ± 2.44 µM and the IC50 (telomerase; [6]) was 39.9 ± 1.4 µM.
Compound `O=S(=O)(F)/C=C/c1cc2ccccc2o1` [Compound 39] has an IC50 (telomerase; [6]) of 48.8 ± 2.22 µM.
`COc1ccc(/C=C/S(=O)(=O)F)cc1` [Compound 4] showed an IC50 (human melanoma cell A375; [3]) of 16.9 ± 1.22 µM, an IC50 [1, 4] of 24.7 ± 2.15 µM and an IC50 [2, 5] of 73.8 ± 1.7 µM.
`O=C1C=C(/C=C/S(=O)(=O)F)CCC1` [Compound 58] gave an IC50 (telomerase; read-out: IC50 inhibitory activity against telomerase) of 39.9 ± 1.29 µM.
Work on `Cc1cc(C)cc(/C=C/S(=O)(=O)F)c1` [Compound 28] yielded an IC50 (human melanoma cell A375; [3]) of 10.2 ± 0.75 µM, an IC50 [1, 4] of 20.6 ± 2.11 µM and an IC50 [2, 5] of 16.7 ± 0.65 µM.
Work on `O=S(=O)(F)/C=C/C=C/c1ccc(C(F)(F)F)cc1` [Compound 52] yielded an IC50 (human melanoma cell A375; [3]) of 13.3 ± 0.87 µM, an IC50 [1, 4] of 15.3 ± 0.82 µM and an IC50 [2, 5] of 24.3 ± 1.19 µM.
Compound `O=S(=O)(F)/C=C/c1ccc(Oc2ccccc2)cc1` [Compound 3] has an IC50 (human melanoma cell A375; [3]) of 27 ± 0.82 µM and an IC50 [1, 4] of 31.8 ± 1.44 µM.
For `O=S(=O)(F)/C=C/c1cc2ccccc2s1` [Compound 42], the “IC50 inhibitory activity against telomerase” value (telomerase) was “no”.
Work on `Cc1cc(/C=C/S(=O)(=O)F)ccc1Br` [Compound 29] yielded an IC50 (human melanoma cell A375; [3]) of 14.3 ± 0.91 µM and an IC50 [1, 4] of 16.9 ± 0.87 µM.
In the case of `O=S(=O)(F)/C=C/c1cnn(-c2ccccc2)c1` [Compound 47], the IC50 (human melanoma cell A375; [7]) is reported as 9.04 ± 0.29 µM, the IC50 [1, 8] is reported as 10.2 ± 0.44 µM and the IC50 ([2]; Homo sapiens, SMMC-7721, 48 h) is reported as 21.2 ± 0.49 µM. It also gave an IC50 (telomerase; [6]) of 2.13 ± 0.6 µM.
`Cc1cccc(/C=C/S(=O)(=O)F)c1` [Compound 17] gave an IC50 (human melanoma cell A375; [7]) of 12.1 ± 1.19 µM, an IC50 [1, 8] of 10.6 ± 0.91 µM and an IC50 (telomerase; [6]) of 10.1 ± 1.13 µM.
`O=S(=O)(F)/C=C/c1cc(F)nc(F)c1` [Compound 59] gave an IC50 (human melanoma cell A375; [7]) of 58 ± 1.71 µM and an IC50 (telomerase; [6]) of 44.2 ± 2.26 µM.
`O=S(=O)(F)/C=C/c1cccc2c1oc1ccccc12` [Compound 38] was tested, and the IC50 (human melanoma cell A375; [3]) was 40.8 ± 1.39 µM and the IC50 [1, 4] was 83.2 ± 2.91 µM.
Compound `O=Cc1ccc(/C=C/S(=O)(=O)F)o1` [Compound 37] has an IC50 (human melanoma cell A375; [3]) of 9.09 ± 0.81 µM, an IC50 [1, 4] of 21.5 ± 1.29 µM and an IC50 [2, 5] of 35.1 ± 0.49 µM.
`O=[N+]([O-])c1cccc(/C=C/S(=O)(=O)F)c1` [Compound 22] showed an IC50 (human melanoma cell A375; [7]) of 4.14 ± 0.21 µM, an IC50 [1, 8] of 6.54 ± 0.74 µM and an IC50 ([2]; Homo sapiens, SMMC-7721, 48 h) of 26.1 ± 0.73 µM. For the same compound, the IC50 (telomerase; [6]) was 2.25 ± 0.3 µM.
For `O=S(=O)(F)/C=C/c1ccc(C(F)(F)F)nc1` [Compound 79], the IC50 (human melanoma cell A375; [3]) was 23 ± 1.75 µM.
Compound `CCOC(=O)c1ccc(/C=C/S(=O)(=O)F)cc1` [Compound 14] has an IC50 (human melanoma cell A375; [3]) of 50 ± 1.78 µM, an IC50 [1, 4] of 3.6 ± 0.3 µM and an IC50 [2, 5] of 27 ± 1.01 µM.
In the case of `O=S(=O)(F)/C=C/c1ccccc1O` [Compound 35], the IC50 (human melanoma cell A375; [3]) is reported as 7.41 ± 0.77 µM, the IC50 [1, 4] is reported as 7.41 ± 0.33 µM and the IC50 [2, 5] is reported as 36.5 ± 0.7 µM.
`O=S(=O)(F)/C=C/c1cccc(C(F)(F)F)c1` [Compound 20] was tested, and the IC50 (human melanoma cell A375; [7]) was 10.4 ± 0.82 µM, the IC50 [1, 8] was 3.18 ± 0.2 µM and the IC50 ([2]; Homo sapiens, SMMC-7721, 48 h) was 20 ± 1.74 µM. For the same compound, the IC50 (telomerase; [6]) was 4.17 ± 0.39 µM.
`COc1ccccc1/C=C/S(=O)(=O)F` [Compound 23] showed an IC50 (human melanoma cell A375; [3]) of 25.3 ± 1.33 µM and an IC50 [1, 4] of 33.8 ± 2.89 µM.
In the case of `CS(=O)(=O)c1cccc(/C=C/S(=O)(=O)F)c1` [Compound 81], the IC50 (human melanoma cell A375; [7]) is reported as 7.89 ± 0.56 µM, the IC50 [1, 8] is reported as 27.8 ± 1.32 µM and the IC50 ([2]; Homo sapiens, SMMC-7721, 48 h) is reported as 34.9 ± 1.7 µM. It also gave an IC50 (telomerase; [6]) of 2.55 ± 0.4 µM.
Work on `O=[N+]([O-])c1ccc(/C=C/S(=O)(=O)F)cc1` [Compound 12] yielded an IC50 (human melanoma cell A375; [7]) of ~3 µM, an IC50 (human melanoma cell A375; read-out: IC50 A375, antiproliferative, MTT, 48 h exposure) of 3.58 ± 0.11 µM and an IC50 [1, 8] of 4.25 ± 0.32 µM. For the same compound, the IC50 (telomerase; [6]) was 2.77 ± 0.58 µM.

Reference: publication PMC6116703, “Ethenesulfonyl fluoride derivatives as telomerase inhibitors: structure-based design, SAR, and anticancer evaluation in vitro” (Journal of Enzyme Inhibition and Medicinal Chemistry, 2018)
